According to patent US7915012B2, “Methods for screening for inhibitors of TRPV2 activation” (Korea University Industry and Academic Collaboration …, priority 2008, dated 2011):

Legend:
rTRPV2 = target: T1, rTRPV2 (Rattus norvegicus, UniProt Q9WUD2, A713V/L151P/T158I); test: Whole-cell voltage-clamp recording in TRPV2 transfected HEK293T cell line; assay type: cell-based; conditions: 100 μM probenecid; +60 mV and −60 mV; n=5
T1 construct: expressed in transfected cells; host or cells: HEK293T (ATCC CRL-11268)
T1 sequence (Q9WUD2 1-761 L151P/T158I/A713V): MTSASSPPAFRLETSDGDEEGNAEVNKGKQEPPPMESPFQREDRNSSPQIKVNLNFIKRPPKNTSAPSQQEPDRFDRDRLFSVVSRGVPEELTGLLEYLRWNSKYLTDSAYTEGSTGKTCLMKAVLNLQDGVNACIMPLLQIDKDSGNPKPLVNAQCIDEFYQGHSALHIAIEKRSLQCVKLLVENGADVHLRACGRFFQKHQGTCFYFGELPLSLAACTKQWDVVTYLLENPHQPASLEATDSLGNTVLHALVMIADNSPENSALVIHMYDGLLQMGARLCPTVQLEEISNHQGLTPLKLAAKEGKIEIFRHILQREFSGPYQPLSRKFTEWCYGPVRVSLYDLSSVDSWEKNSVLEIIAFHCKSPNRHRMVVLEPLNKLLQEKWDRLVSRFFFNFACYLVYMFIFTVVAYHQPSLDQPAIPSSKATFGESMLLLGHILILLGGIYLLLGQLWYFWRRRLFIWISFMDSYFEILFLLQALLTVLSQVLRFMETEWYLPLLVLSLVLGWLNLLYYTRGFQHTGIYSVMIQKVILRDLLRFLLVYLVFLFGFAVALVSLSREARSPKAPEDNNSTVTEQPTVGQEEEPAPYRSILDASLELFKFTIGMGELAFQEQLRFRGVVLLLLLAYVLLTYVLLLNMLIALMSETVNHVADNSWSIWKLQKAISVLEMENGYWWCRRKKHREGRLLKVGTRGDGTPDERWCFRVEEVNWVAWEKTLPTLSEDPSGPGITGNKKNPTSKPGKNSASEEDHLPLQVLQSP
Description: HEK293T cell line (ATCC CRL-1 1268) was transiently transfected with plasmid DNA containing polynucleotide encoding […] (SEQ. ID. NO: 1), rTRPV2 (SEQ. ID. NO: 2), mTRPV3 (SEQ. ID. NO: 3), rTRPV4 (SEQ. ID. NO: 4), mTRPM8 (SEQ. ID. NO: 5) or mTRPA1 (SEQ. ID. NO: 6).
Particularly, the HEK293T cell line was transiently transfected with individual TRP channel plasmid (pcDNA3.1 containing polynucleotide encoding rTRPV1, rTRPV2, mTRPV3, rTRPV4, mTRPM8 or mTRPA1), and 600 ng/well of pCDNA3 (Invitrogen Corp., USA; containing green fluorescent protein (GFP) cDNA) using Fugene6 (Roche Diagnostics, USA) according to manufacturer's instruction. The transformed cells were cultured in DMEM/F12 containing 10% FBS and 1% penicillin/streptomycin in a CO2 incubator for 24 hours. The cells were replated onto poly-L-lysine-coated glass coverslips, followed by further culture for 10-24 hours.
The TRPV2 transfected cell line prepared in Example 1 was treated with 100 μM probenecid (Sigma-Aldrich, USA) and 300 μM 2-APB (2-aminoethoxydiphenyl borate; Cayman Chemical, USA), respectively. Stock solutions were made using water, DMSO or ethanol, and were diluted with test solutions before use.
Whole-cell voltage-clamp recording, one of the patch-clamp techniques, was performed with the transfected cell line of Example <1-1> according to the method of Bandel M, et al. (Neuron 41:849-857, 2004).
Particularly, the extracellular solution (140 mM NaCl, 5 mM KCl, 2 mM CaCl2, 1 mM MgCl2, 10 mM HEPES; titrated to pH 7.4 with NaOH) and the pipette solution (140 mM CsCl, 5 mM EGTA, 10 mM HEPES, 2.0 mM MgATP, 0.2 mM NaGTP; titrated to pH 7.2 with CsOH) were used. The potential was held at −60 mV for 250 ms, voltage-ramp pulsed from −80 mV to +80 mV for […] and returned to −60 mV for 250 ms, which was repeated without intersweep. This experiment was repeated 5 times.
The TRPV2 transfected cell line prepared by the method of Example 1 was treated with 100 μM probenecid, 100 μM probenecid+20 μM ruthenium red (Sigma-Aldrich, USA) and 300 μM 2-APB, respectively. […]

Oral aversion test = assay type: in vivo, ICR mice
Description: Oral aversion test was confirmed according to the methods of Caterina M J, et al. (Science 288:306-313, 2000) and Kwan K Y, et al. (Neuron 50: 277-289, 2006). Particularly, adult ICR mice randomly selected and raised were allowed to drink water containing 0.125% saccharin (Sigma Aldrich, USA) only for three hours a day. Water and feed were provided for 4 days. Water and feed consumptions were measured everyday. On day 4, water containing 20 mM probenecid was provided for 3 hours. Statistical data were analyzed by two-tailed, unpaired Student's-t-test and the results were presented by mean ±S.E.M.

In the case of `CCCN(CCC)S(=O)(=O)c1ccc(C(=O)O)cc1` [probenecid], the “whole cell current (TRPV2 activation)” value (rTRPV2) is reported as “significant increase of current”, the oral aversion (Oral aversion test; water containing 20 mM probenecid) is reported as “did not induce oral aversion” and the “water and feed consumption, treated versus not treated group” value (Oral aversion test; water containing 20 mM probenecid for 3 hours on day 4, n=5) is reported as “no significant difference”.
